{"source": "patent US20090186767A1", "about": "“Use of surfactants for mitigating damage to plants from pests” (Cleareso, LLC, priority 2008, published 2009)", "key": {"[1]": {"test_system": "larvae of the root weevil, Diaprepes abbreviatus", "experiment": "Immersion of root weevil larvae in test solutions (Example 1)", "type": "in vivo", "conditions": "for Judgement of toxicity to larvae: 0.1 to 5.0% treatments, test terminated at 24 hours; for Mortality of larvae with individual compounds and formulations: five larvae", "description": "The criterion for toxicity with these larvae is the lack of nipping behavior and its consequent black residue from blood loss and the lack of spontaneous movement.\nExperimental Design. Larvae and pupae were received from the Florida Dept. of Agriculture's rearing program in Gainesville, Fla. Larvae were shipped as 50-day larvae (larvae that will pupate in about 10 days). Both larvae and pupae were held at 27° C. in 12 hour cycles of light and dark in their containers as separate individuals until experimentation began.\nIn the testing, five larvae or pupae were removed from their rearing cups and placed in a 150 ml glass beaker. In testing the Soy Technologies Manufacturer's Base (SMTB), a 5% solution was mixed in either water or carbonated water by adding 10 ml of SMTB to a 250 ml beaker and then adding water or carbonated water to the 200 ml mark. The solutions were then immediately added to the beaker with the larvae or pupae to cover them. Controls with water or carbonated water alone were also included. There was a single tray of five larvae for each treatment at each time period and a five larvae control for each time period. Larvae were removed and placed on plastic weighing trays after 5, 10, 15, 20, 25, and 30 minutes. At the end of 30 minutes all organisms were assessed for mortality. Trays with larvae were left on the bench tip for 24 hours and then another mortality assessment was made.\nConcentration Series. With the results from the time series above, larvae were held in different concentrations of STMB for 30 minutes. After 30 minutes, solutions were poured off and the trays wiped dry. Assessments were made at 24 or 48 hours with a few assessments at 72 hours dependent on effects. Treatments were: water or carbonated water as controls, and 0.1, 0.5, 1.0, 2.0, 3.0, 4.0 and 5.0% concentrations in either distilled water or carbonated water. Five larvae were used for each control and treatment. Pupae were not used in this assessment."}, "[2]": {"experiment": "Solubility of test preparations in water (Example 1)", "type": "physicochemical", "conditions": "concentration stated in the value"}, "[3]": {"test_system": "tomato root galling by M. javanica", "conditions": "in vivo; cited from earlier work"}, "[4]": {"test_system": "second stage juveniles of Meloidognye hapla", "conditions": "cited from earlier work; for Toxicity to nematodes: in vivo; for Toxicity to second stage juveniles: 24 hours at a concentration of 50 ppm"}, "[5]": {"conditions": "concentration 0.1 percent, 24 hours"}, "[6]": {"conditions": "concentration 1.0 percent, 24 hours"}, "[7]": {"conditions": "concentration 3.0 percent, 24 hours"}, "[8]": {"conditions": "concentration 5.0 percent, 24 hours"}, "[9]": {"conditions": "concentration 0.1 percent, 48 hours"}, "[10]": {"conditions": "concentration 0.1 percent, 72 hours"}, "[11]": {"conditions": "concentration 1.0 percent, 48 hours"}, "[12]": {"conditions": "concentration 1.0 percent, 72 hours"}, "[13]": {"conditions": "concentration 3.0 percent, 48 hours"}, "[14]": {"conditions": "concentration 3.0 percent, 72 hours"}, "[15]": {"conditions": "concentration 5.0 percent, 48 hours"}, "[16]": {"conditions": "concentration 5.0 percent, 72 hours"}}, "note": "“Also recorded” adds a separate entry of the source.", "data": [{"compound": "COC(=O)CCC(=O)OC", "note": "[106-65-0, butanedioic acid, dimethyl ester]", "values": [{"measurement": "Judgement of toxicity to larvae", "setting": "[1]", "value": "judged to be non-toxic"}, {"measurement": "Mortality of larvae with individual compounds and formulations", "setting": "[1]; [5]", "value": 2}, {"measurement": "Mortality of larvae with individual compounds and formulations", "setting": "[1]; [6]", "value": 2}, {"measurement": "Mortality of larvae with individual compounds and formulations", "setting": "[1]; [7]", "value": 1}, {"measurement": "Mortality of larvae with individual compounds and formulations", "setting": "[1]; [8]", "value": 1}, {"measurement": "Solubility of the preparation", "setting": "[2]; listed as Dimethyl succinate", "value": "The 3% and 5% concentrations were not soluble; also recorded: the 1.0% appears to be just soluble; also recorded: The 0.1% was soluble"}]}, {"compound": "COC(=O)CCCCC(=O)OC", "note": "[627-93-0, Dimethyl hexanedioate]", "values": [{"measurement": "Judgement of toxicity to larvae", "setting": "[1]", "value": "judged non-toxic"}, {"measurement": "Mortality of larvae with individual compounds and formulations", "setting": "[1]; [5]", "value": 2}, {"measurement": "Mortality of larvae with individual compounds and formulations", "setting": "[1]; [6]", "value": 1}, {"measurement": "Mortality of larvae with individual compounds and formulations", "setting": "[1]; [7]", "value": 2}, {"measurement": "Mortality of larvae with individual compounds and formulations", "setting": "[1]; [8]", "value": 3}, {"measurement": "Solubility of the preparation", "setting": "[2]; listed as Dimethyladipate", "value": "Preparations of 1.0, 3.0, and 5.0% concentration were not completely soluble; also recorded: The 0.1% preparation was soluble"}]}, {"compound": "COC(=O)CCCC(=O)OC", "note": "[1119-40-0, pentanedioic acid, dimethyl ester]", "values": [{"measurement": "Mortality of larvae with individual compounds and formulations", "setting": "[1]; [9]", "value": 3}, {"measurement": "Mortality of larvae with individual compounds and formulations", "setting": "[1]; [10]", "value": 3}, {"measurement": "Mortality of larvae with individual compounds and formulations", "setting": "[1]; [11]", "value": 1}, {"measurement": "Mortality of larvae with individual compounds and formulations", "setting": "[1]; [12]", "value": 2}, {"measurement": "Mortality of larvae with individual compounds and formulations", "setting": "[1]; [13]", "value": 0}, {"measurement": "Mortality of larvae with individual compounds and formulations", "setting": "[1]; [14]", "value": 0}, {"measurement": "Mortality of larvae with individual compounds and formulations", "setting": "[1]; [15]", "value": 1}, {"measurement": "Mortality of larvae with individual compounds and formulations", "setting": "[1]; [16]", "value": 2}]}, {"compound": "CCCCCCCCC(=O)OC", "note": "[Methyl perlargonate]", "values": [{"measurement": "Concentration producing reduced galling of plants", "setting": "[3]", "value": 0.8, "unit": "microliters/liter"}]}, {"compound": "CCCCCCCC/C=C\\CCCCCCCC(=O)O", "note": "[Oleic acid]", "values": [{"measurement": "Toxicity to nematodes", "setting": "[4]", "value": "relatively nontoxic"}]}, {"compound": "CCCCCCCCCC(=O)O", "note": "[decanoic acid]", "values": [{"measurement": "Toxicity to second stage juveniles", "setting": "[4]", "value": "killed all second stage juveniles"}]}, {"compound": "CCCCCCCC/C=C\\CCCCCCCC(=O)[O-].[K+]", "note": "[potassium oleate]", "values": [{"measurement": "Toxicity to nematodes", "setting": "[4]", "value": "relatively nontoxic"}]}, {"compound": "CCCCCCCCCCC(=O)O", "note": "[undecanoic acid]", "values": [{"measurement": "Toxicity to second stage juveniles", "setting": "[4]", "value": "killed all second stage juveniles"}]}, {"compound": "Polyoxyethylene 10 tridecylether [24938-91-8]", "values": [{"measurement": "Mortality of larvae with individual compounds and formulations", "setting": "[1]; [5]", "value": 0}, {"measurement": "Mortality of larvae with individual compounds and formulations", "setting": "[1]; [9]", "value": 0}, {"measurement": "Mortality of larvae with individual compounds and formulations", "setting": "[1]; [10]", "value": 0}, {"measurement": "Mortality of larvae with individual compounds and formulations", "setting": "[1]; [6]", "value": 2}, {"measurement": "Mortality of larvae with individual compounds and formulations", "setting": "[1]; [11]", "value": 2}, {"measurement": "Mortality of larvae with individual compounds and formulations", "setting": "[1]; [12]", "value": 2}, {"measurement": "Mortality of larvae with individual compounds and formulations", "setting": "[1]; [7]", "value": 0}, {"measurement": "Mortality of larvae with individual compounds and formulations", "setting": "[1]; [13]", "value": 0}, {"measurement": "Mortality of larvae with individual compounds and formulations", "setting": "[1]; [14]", "value": 0}, {"measurement": "Mortality of larvae with individual compounds and formulations", "setting": "[1]; [8]", "value": 0}, {"measurement": "Mortality of larvae with individual compounds and formulations", "setting": "[1]; [15]", "value": 3}, {"measurement": "Mortality of larvae with individual compounds and formulations", "setting": "[1]; [16]", "value": 3}]}, {"compound": "glycol pelargonate", "values": [{"measurement": "Concentration producing reduced galling of plants", "setting": "[3]", "value": 6.4, "unit": "microliters/liter"}]}]}
